Measurements as given in US8420823B2, “Long-chain fatty acyl elongase inhibitor comprising arylsulfonyl derivative as active ingredient” (MSD K.K., priority 2008, dated 2013).
Structures can show the parent of a compound that is named as a salt.

Target: T1, human LCE (Homo sapiens, UniProt Q9H5J4)
T1 sequence (Q9H5J4 1-265): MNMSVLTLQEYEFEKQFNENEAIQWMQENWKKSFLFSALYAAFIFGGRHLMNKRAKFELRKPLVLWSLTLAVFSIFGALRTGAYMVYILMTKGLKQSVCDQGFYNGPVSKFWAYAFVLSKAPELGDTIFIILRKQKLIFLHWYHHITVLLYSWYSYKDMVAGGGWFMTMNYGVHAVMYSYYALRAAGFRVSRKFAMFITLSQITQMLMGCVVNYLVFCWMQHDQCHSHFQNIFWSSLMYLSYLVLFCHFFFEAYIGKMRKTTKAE
Experiment: LCE enzyme activity-inhibitory test
Type: biochemical
Conditions: [14C]-malonyl CoA / palmitoyl CoA substrate, 37° C., 90 minutes
Protocol: Pharmacological Test Example 1 (LCE Enzyme Activity-inhibitory Test)
A test compound was dissolved in dimethyl sulfoxide (DMSO to be 10 mM), and then diluted with DMSO to prepare a 1000-fold concentrated solution of the test concentration. An improved Moon et al's method (J. Biol. Chem., Vol. 276, pp. 45358-45366, 2001) was employed for the LCE enzyme activity-inhibitor test. Concretely, the diluted compound was applied to a 96-well assay plate (Corning, 96-well assay block) in an amount of 1.0 μL/well; 50 μL of a phosphate buffer solution (100 mM potassium phosphate buffer, pH 6.5), and 25 μL of a substrate solution (100 mM potassium phosphate buffer (pH 6.5), 4.0 μM rotenone, 80 μM fatty acid-free bovine serum albumin, 160 μM palmitoyl CoA, 80 μM malonyl CoA, 3.5 μM [^14C]-malonyl CoA (1.92 GBq/mmol, by Amersham)) were added to each well; 25 μL of an enzyme solution (100 mM potassium phosphate buffer (pH 6.5), 100 μg/mL human LCE) was added thereto; the top of the plate was airtightly sealed up; and this was incubated with gently shaking and stirring at 37° C. for 90 minutes. Next, 100 μL of 5 M hydrochloric acid was added to each well, and the assay plate was stirred at room temperature for 5 minutes to stop the enzyme reaction with hydrolyzing the acyl CoA. Next, the enzyme reaction solution in each well was adsorbed by each well of a 96-well GF/C filter plate (Perkin Elmer Unifilter 96 GF/C); the individual wells were washed with water to remove the non-adsorbed malonyl CoA; and the GF/C filter plate was dried at 50° C. for 60 minutes. Next, 30 μL of a scintillator (Perkin Elmer Microscinti 0) was added to each well; then the top of the plate was sealed up; and the fixed [^14C] radioactivity was measured with a microplate scintillation counter (Perkin Elmer TopCount) to be the enzyme activity. The human LCE enzyme-inhibitory activity of the test compound was calculated, based on the radioactivity of the DMSO-added well with no test compound therein as a control.

| SMILES | IC50 [µM] |
| --- | --- |
| CC(C)Oc1ccc(NC(=O)c2cccc(S(=O)(=O)N3C[C@H]4C[C@@H]3CO4)c2)cc1 [Example 1, N-(4-isopropoxyphenyl)-3-[(1R,4R)-2-oxa-5-azabicyclo[2.2.1]hept-5-ylsulfonyl]benzamide] | 2.2 |
| CC(C)Oc1ccc(NC(=O)c2cccc(S(=O)(=O)N3CCc4[nH]ncc4C3)c2)cc1 [Example 3, N-(4-isopropoxyphenyl)-3-(1,4,6,7-tetrahydro-5H-pyrazolo[4,3-c]pyridin-5-ylsulfonyl)benzamide trifluoroacetate] | 7.4 |
| CC(C)Oc1ccc(NC(=O)c2cccc(S(=O)(=O)N3CC4CC5CC(C4)CC3C5)c2)cc1 [Example 4, 3-(4-Azatricyclo[4.3.1.1^3,8]undec-4-ylsulfonyl)-N-(4-isopropoxyphenyl)benzamide] | 5.1 |
| CC(C)Oc1ccc(NC(=O)c2cccc(S(=O)(=O)NC(C3CC3)C3CC3)c2)cc1 [Example 6, 3-{[(dicyclopropylmethyl)amino]sulfonyl}-N-(4-isopropoxyphenyl)benzamide] | 1.1 |
| CC(C)Oc1ccc(NC(=O)c2cccc(S(=O)(=O)N3C[C@@H]4C[C@H]3CN4C)c2)cc1 [Example 8, N-(4-isopropoxyphenyl)-3-{[(1S,4S)-5-methyl-2,5-diazabicyclo[2.2.1]hept-2-yl]sulfonyl}benzamide trifluoroacetate] | 9.6 |
| CC(C)Oc1ccc(NC(=O)c2cccc(S(=O)(=O)N3C[C@@H]4C[C@H]3CO4)c2)cc1 [Example 10, N-(4-isopropoxyphenyl)-3-[(1S,4S)-2-oxa-5-azabicyclo[2.2.1]hept-5-ylsulfonyl]benzamide] | 0.76 |
| CC(C)Oc1ccc(NC(=O)c2cccc(S(=O)(=O)N3CCCC(c4nncn4C)C3)c2)cc1 (stereo not drawn) [Example 11, N-(4-isopropoxyphenyl)-3-{[3-(4-methyl-4H-1,2,4-triazol-3-yl)piperidin-1-yl]sulfonyl}benzamide trifluoroacetate] | 1 |
| CC(C)Oc1ccc(NC(=O)c2cccc(S(=O)(=O)N3CCN4CCCC4C3)c2)cc1 (stereo not drawn) [Example 12, 3-(Octahydropyrrolo[1,2-a]pyrazin-2(1H)-ylsulfonyl)-N-(4-isopropoxyphenyl)benzamide trifluoroacetate] | 6.8 |
| CC(C)Oc1ccc(NC(=O)c2cccc(S(=O)(=O)N3CCN4CCCCC4C3)c2)cc1 (stereo not drawn) [Example 13, N-(4-Isopropoxyphenyl)-3-(octahydro-2H-pyrido[1,2-a]pyrazin-2-ylsulfonyl)benzamide trifluoroacetate] | 5.2 |
| CC(C)Oc1ccc(NC(=O)c2cccc(S(=O)(=O)N3CCCC(CN4CCOCC4)C3)c2)cc1 (stereo not drawn) [Example 14, N-(4-Isopropoxyphenyl)-3-{[3-(morpholin-4-ylmethyl)piperidin-1-yl]sulfonyl}benzamide trifluoroacetate] | 1.2 |
| CC(C)Oc1ccc(NC(=O)c2cccc(S(=O)(=O)N3CCCC(F)(F)C3)c2)cc1 [Example 19, 3-[(3,3-Difluoropiperidin-1-yl)sulfonyl]-N-(4-isopropoxyphenyl)benzamide] | 1.5 |
| CC(C)Oc1ccc(NC(=O)c2cccc(S(=O)(=O)N3CCc4o[nH]c(=O)c4C3)c2)cc1 [Example 22, N-(4-isopropoxyphenyl)-3-[(3-oxo-2,3,6,7-tetrahydroisoxazolo[4,5-c]pyridin-5(4H)-yl)sulfonyl]benzamide] | 5.1 |
| CC(C)c1ccc(NC(=O)c2cccc(S(=O)(=O)N3[C@H](C)CC[C@H]3C)c2)cc1 [Example 26, 3-{[(2R,5R)-2,5-dimethylpyrrolidin-1-yl]sulfonyl}-N-(4-isopropylphenyl)benzamide] | 3.5 |
| CC(C)c1ccc(NC(=O)c2cccc(S(=O)(=O)N3[C@H](C)CCC[C@@H]3C)c2)cc1 [Example 31, 3-{[(2R,6S)-2,6-dimethylpiperidin-1-yl]sulfonyl}-N-(4-isopropylphenyl)benzamide] | 2.8 |
| CC(C)c1ccc(NC(=O)c2cccc(S(=O)(=O)N3CC[C@@H](F)C3)c2)cc1 [Example 33] | 2.6 |

These reach a lower IC50. Values come first.

| IC50 [µM] | SMILES |
| --- | --- |
| 0.67 | CC(C)Oc1ccc(NC(=O)c2cccc(S(=O)(=O)N3CCC[C@H]3C)c2)cc1 [Example 24, N-(4-isopropoxyphenyl)-3-{[(2R)-2-methylpyrrolidin-1-yl]sulfonyl}benzamide] |
| 0.53 | CC(C)Oc1ccc(NC(=O)c2cccc(S(=O)(=O)N3CCCC(OCc4cccnc4)C3)c2)cc1 (stereo not drawn) [Example 20, N-(4-isopropoxyphenyl)-3-{[3-(pyridin-3-ylmethoxy)piperidin-1-yl]sulfonyl}benzamide trifluoroacetate] |
| 0.51 | COC1CCCN(S(=O)(=O)c2cccc(C(=O)Nc3ccc(OC(C)C)cc3)c2)C1 (stereo not drawn) [Example 18, N-(4-isopropoxyphenyl)-3-[(3-methoxypiperidin-1-yl)sulfonyl]benzamide] |
| 0.34 | CC(C)Oc1ccc(NC(=O)c2cccc(S(=O)(=O)N3CCC(F)(F)CC3)c2)cc1 [Example 17, 3-[(4,4-Difluoropiperidin-1-yl)sulfonyl]-N-(4-isopropoxyphenyl)benzamide] |
| 0.28 | CC(C)Oc1ccc(NC(=O)c2cccc(S(=O)(=O)NCC(C)c3nc4ccccc4[nH]3)c2)cc1 (stereo not drawn) [Example 25, 3-({[2-(1H-benzimidazol-2-yl)propyl]amino}sulfonyl)-N-(4-isopropoxyphenyl)benzamide] |
| 0.2 | CC(C)Oc1ccc(NC(=O)c2cccc(S(=O)(=O)N3CCCC(OCc4ccccn4)C3)c2)cc1 (stereo not drawn) [Example 21, N-(4-isopropoxyphenyl)-3-{[3-(pyridin-2-ylmethoxy)piperidin-1-yl]sulfonyl}benzamide trifluoroacetate] |
| 0.19 | CC(C)c1ccc(NC(=O)c2cccc(S(=O)(=O)N3CCCCCC3)c2)cc1 [Example 27, 3-(Azepan-1-ylsulfonyl)-N-(4-isopropylphenyl)benzamide] |
| 0.18 | CC(C)c1ccc(NC(=O)c2cccc(S(=O)(=O)N3CCOCC3)c2)cc1 [Example 29, N-(4-isopropylphenyl)-3-(morpholin-4-ylsulfonyl)benzamide] |
| 0.17 | CC(C)c1ccc(NC(=O)c2cccc(S(=O)(=O)N3CCCC3)c2)cc1 [Example 28, N-(4-isopropylphenyl)-3-(pyrrolidin-1-ylsulfonyl)benzamide] |
| 0.15 | CC(C)Oc1ccc(NC(=O)c2cccc(S(=O)(=O)N3CCOC(COc4ccccc4)C3)c2)cc1 (stereo not drawn) [Example 9, N-(4-isopropoxyphenyl)-3-{[2-(phenoxymethyl)morpholin-4-yl]sulfonyl}benzamide] |
| 0.13 | CC(C)Oc1ccc(NC(=O)c2cccc(S(=O)(=O)N3CCC[C@@H]3C)c2)cc1 [Example 23, N-(4-isopropoxyphenyl)-3-{[(2S)-2-methylpyrrolidin-1-yl]sulfonyl}benzamide] |
| 0.12 | CC(C)Oc1ccc(NC(=O)c2cccc(S(=O)(=O)N3CCC(F)CC3)c2)cc1 [Example 15, 3-[(4-Fluoropiperidin-1-yl)sulfonyl]-N-(4-isopropoxyphenyl)benzamide] |
| 0.11 | CC(C)Oc1ccc(NC(=O)c2cccc(S(=O)(=O)N3CC4CCC3CC4)c2)cc1 [Example 16, 3-(2-Azabicyclo[2.2.2]oct-2-ylsulfonyl)-N-(4-isopropoxyphenyl)benzamide] |
| 0.1 | CC(C)c1ccc(NC(=O)c2cccc(S(=O)(=O)N3CCCCC3C)c2)cc1 (stereo not drawn) [Example 30, N-(4-isopropylphenyl)-3-[(2-methylpiperidin-1-yl)sulfonyl]benzamide] |
| 0.1 | CC(C)c1ccc(NC(=O)c2cccc(S(=O)(=O)N3CCCC(O)C3)c2)cc1 (stereo not drawn) [Example 32, 3-[(3-Hydroxypiperidin-1-yl)sulfonyl]-N-(4-isopropylphenyl)benzamide] |
| 0.051 | CC(C)Oc1ccc(NC(=O)c2cccc(S(=O)(=O)N3CCCC(c4nc5ccccc5o4)C3)c2)cc1 (stereo not drawn) [Example 7, 3-{[3-(1,3-benzoxazol-2-yl)piperidin-1-yl]sulfonyl}-N-(4-isopropoxyphenyl)benzamide] |
| 0.036 | CC(C)Oc1ccc(NC(=O)c2cccc(S(=O)(=O)N3CC4CCC3C4)c2)cc1 (stereo not drawn) [Example 2, 3-(2-Azabicyclo[2.2.1]hept-2-ylsulfonyl)-N-(4-isopropoxyphenyl)benzamide] |
| 0.03 | CC(C)Oc1ccc(NC(=O)c2cccc(S(=O)(=O)N3CCCC(c4nc5ccccc5[nH]4)C3)c2)cc1 (stereo not drawn) [Example 5, 3-{[3-(1H-benzimidazol-2-yl)piperidin-1-yl]sulfonyl}-N-(4-isopropoxyphenyl)benzamide] |
